Data as given in US20230089247A1, “NOVEL COMPOUNDS SUITABLE FOR THE TREATMENT OF DYSLIPIDEMIA” (ZYDUS LIFESCIENCES LIMITED, priority 2019, published 2023).

Columns and labels:
High Fat Diet C57 Mice = assay: LDL-C lowering activity in high fat diet C57 mice; type: in vivo; conditions: Mus musculus, po, 168 h; C57 mice on high fat diet; 30 mg/Kg orally once a day, 7 days treatment, blood on day 7; read-out: % Change Vs Vehicle Control in LDLc
Experimental: LDL-C Lowering Activity—in High Fat Diet C57 Mice
The in-vivo LDL-c lowering for test compound was tested in C57 mice which were kept on high fat diet for 4 weeks and the blood was collected by retro-orbital sinus puncture method under light ether anesthesia on day 0 (pretreatment). Animal are grouped based on LDL-c levels, after that 7 days treatment with vehicle or test compound orally at a dose of 30 mpk dose once a day was given. On completion of treatment on day 7 of the treatment the blood was collected for LDL-c and TC levels measurement.

PCSK9 = PCSK9 (Homo sapiens, UniProt Q8NBP7); assay: BODIPY-LDL uptake assay in HepG2 cells; type: cell-based; conditions: 5 μg/ml PCSK9, BODIPY-LDL
Sequence of PCSK9 (Q8NBP7 153-692): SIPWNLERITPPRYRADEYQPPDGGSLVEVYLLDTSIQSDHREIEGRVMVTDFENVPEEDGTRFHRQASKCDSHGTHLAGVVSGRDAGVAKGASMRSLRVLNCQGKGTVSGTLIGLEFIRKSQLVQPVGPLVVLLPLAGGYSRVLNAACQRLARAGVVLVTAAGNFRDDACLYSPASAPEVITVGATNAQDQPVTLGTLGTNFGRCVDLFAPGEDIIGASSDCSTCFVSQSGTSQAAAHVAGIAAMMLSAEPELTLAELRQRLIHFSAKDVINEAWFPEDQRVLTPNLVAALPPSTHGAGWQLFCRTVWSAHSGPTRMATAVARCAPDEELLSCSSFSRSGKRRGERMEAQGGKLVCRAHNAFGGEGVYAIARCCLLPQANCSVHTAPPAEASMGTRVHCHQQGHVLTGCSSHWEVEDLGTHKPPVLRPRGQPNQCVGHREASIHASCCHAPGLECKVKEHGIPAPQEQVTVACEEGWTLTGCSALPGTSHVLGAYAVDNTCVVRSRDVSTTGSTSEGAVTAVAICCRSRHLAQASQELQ
Procedure, shortened: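 Compounds pre-incubated 60 min with 5 μg/ml PCSK9 (0.2% DMSO), then added to HepG2 cells for 16 h; 1 μg/ml BODIPY-LDL added in serum-free medium for 5 h. Fluorescence (Ex 485/Em 520 nm) normalized to protein; PCSK9-only wells = 0%, no-PCSK9 wells = 100% uptake, giving percent increase in LDL uptake.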

Structure (SMILES) | change in vivo at 30 mg/kg (High Fat Diet C57 Mice) | % increase in LDL Uptake (PCSK9; 1 μM test compound) | % increase in LDL Uptake (PCSK9; 10 μM test compound) | % increase in LDL Uptake (PCSK9; 30 μM test compound)
O=C(c1ccc(C2(O)COC2)cc1)N1CCC(c2ccc(C(F)(F)F)cc2)CC1 [Example 1, (4-(3-hydroxyoxetan-3-yl)phenyl)(4-(4-(trifluoromethyl)phenyl)piperidin-1-yl)methanone] | -52 ± 4% | 25% | 135% | 130%
COC1(c2ccc(C(=O)N3CCC(c4ccc(C(F)(F)F)cc4)CC3)cc2)COC1 [Example 2, (4-(3-methoxyoxetan-3-yl)phenyl)(4-(4-(trifluoromethyl)phenyl)piperidin-1-yl)methanone] | -45 ± 5% | 13% | 86% | 172%
O=C(c1ccc(C2(O)COC2)cc1)N1CCN(c2ccc(C(F)(F)F)cc2)CC1 [Example 6, (4-(3-hydroxyoxetan-3-yl)phenyl)(4-(4-(trifluoromethyl)phenyl)piperazin-1-yl)methanone] | 0.6 ± 9% | 0% | 106% | 179%
OC1(c2ccc(N3CCC(c4ccc(C(F)(F)F)cc4)CC3)cc2)COC1 [Example 8, 3-(4-(4-(4-(trifluoromethyl)phenyl)piperidin-1-yl)phenyl)oxetan-3-ol] | -30 ± 8% | 0% | 73% | 114%
O=C(c1ccc(C2(O)COC2)cc1)N1CC2CC(c3ccc(C(F)(F)F)cc3)CC2C1 (stereo not drawn) [Example 10, (4-(3-hydroxyoxetan-3-yl)phenyl)(5-(4-(trifluoromethyl)phenyl)hexahydrocyclopenta[c]pyrrol-2(1H)-yl)methanone] | -15 ± 8% | 0% | 273% | 347%
O=C(c1ccc(C2(O)COC2)cc1)N1CC2CN(c3ccc(C(F)(F)F)cc3)CC2C1 (stereo not drawn) [Example 11, (4-(3-hydroxyoxetan-3-yl)phenyl)(5-(4-(trifluoromethyl)phenyl)hexahydropyrrolo[3,4-c]pyrrol-2 (1H)-yl)methanone] | -48 ± 5% | 6% | 59% | 116%
O=C(c1ccc(C2(O)COC2)cc1)N1CCCC(c2ccc(C(F)(F)F)cc2)C1 (stereo not drawn) [Example 34, (4-(3-hydroxyoxetan-3-yl)phenyl)(3-(4-(trifluoromethyl)phenyl)piperidin-1-yl)methanone] | -31 ± 8% | 27% | 86% | 252%
COC1(c2ccc(C(=O)N3CCCC(c4ccc(C(F)(F)F)cc4)C3)cc2)COC1 (stereo not drawn) [Example 39, (4-(3-methoxyoxetan-3-yl)phenyl)(3-(4-(trifluoromethyl)phenyl)piperidin-1-yl)methanone] | -29 ± 5% | 26% | 149% | 147%
CCOC1(c2ccc(C(=O)N3CCC(c4ccc(C(F)(F)F)cc4)CC3)cc2)COC1 [Example 43, (4-(3-ethoxyoxetan-3-yl)phenyl)(4-(4-(trifluoromethyl)phenyl)piperidin-1-yl)methanone] | -27 ± 10% | 0% | 12% | 5%
O=C(c1cccc(C2(O)COC2)c1)N1CCC(c2ccc(C(F)(F)F)cc2)CC1 [Example 47, (3-(3-hydroxyoxetan-3-yl)phenyl)(4-(4-(trifluoromethyl)phenyl)piperidin-1-yl)methanone] | -5 ± 7% | 17% | 189% | 383%
COC1(c2ccc(C(=O)N3CCN(c4ccc(C(F)(F)F)cc4)CC3)cc2)COC1 [Example 53, (4-(3-methoxyoxetan-3-yl)phenyl)(4-(4-(trifluoromethyl)phenyl)piperazin-1-yl)methanone] | -15 ± 6% | 4% | 80% | 129%
COC1(c2cccc(C(=O)N3CC4CN(c5ccc(C(F)(F)F)cc5)CC4C3)c2)COC1 (stereo not drawn) [Example 56, (3-(3-methoxyoxetan-3-yl)phenyl)(5-(4-(trifluoromethyl)phenyl)hexahydropyrrolo[3,4-c]pyrrol-2(1H)-yl)methanone] | -5 ± 8% | 55% | 344% | 257%
COC(=O)c1ccc(C2(O)CC3CN(C(=O)c4ccc(C5(O)COC5)cc4)CC3C2)cc1 (stereo not drawn) [Example 198, Methyl 4-(5-hydroxy-2-(4-(3-hydroxyoxetan-3-yl)benzoyl)octahydrocyclopenta[c]pyrrol-5-yl)benzoate] | – | −8% | 25% | 3%
CN1CCN(c2cc(NC(=O)C3CCN(c4ccc(C(F)(F)F)cc4)CC3)cc(C3(O)COC3)c2)CC1 [Example 201, N-(3-(3-hydroxyoxetan-3-yl)-5-(4-methylpiperazin-1-yl)phenyl)-1-(4-(trifluoromethyl)phenyl)piperidine-4-carboxamide] | – | 0% | 0% | 73%
COC1(c2ccc(C(=O)N3CC4=C(C3)CN(c3ccc(C(F)(F)F)cc3)C4)cc2)COC1 [Example 202, (4-(3-methoxyoxetan-3-yl)phenyl)(5-(4-(trifluoromethyl)phenyl)-3,4,5,6-tetrahydropyrrolo[3,4-c]pyrrol-2(1H)-yl)methanone] | – | 16% | 0% | 36%
COC1(c2cccc(C(=O)N3CC4CN(c5ccc(C(F)(F)F)cn5)CC4C3)c2)COC1 (stereo not drawn) [Example 208, (3-(3-methoxyoxetan-3-yl)phenyl)(5-(5-(trifluoromethyl)pyridin-2-yl)hexahydropyrrolo[3,4-c]pyrrol-2 (1H)-yl)methanone] | – | 56% | 14% | 189%
COC1(c2ccc(C(=O)N3CC4CN(c5ccc(C(F)(F)F)cn5)CC4C3)cc2)COC1 (stereo not drawn) [Example 209, (4-(3-methoxyoxetan-3-yl)phenyl)(5-(5-(trifluoromethyl)pyridin-2-yl)hexahydropyrrolo[3,4-c]pyrrol-2(1H)-yl)methanone] | – | 20% | 137% | 21%
O=C(c1cccc(C2(O)COC2)c1)N1CC2CN(c3ccc(C(F)(F)F)cn3)CC2C1 (stereo not drawn) [Example 210, (3-(3-hydroxyoxetan-3-yl)phenyl)(5-(5-(trifluoromethyl)pyridin-2-yl)hexahydropyrrolo[3,4-c]pyrrol-2(1H)-yl)methanone] | – | 0% | 107% | 0%
O=C(c1ccc(C2(O)COC2)cc1)N1CCC(c2ccc(C(F)(F)F)cn2)CC1 [Example 212, (4-(3-hydroxyoxetan-3-yl)phenyl)(4-(5-(trifluoromethyl)pyridin-2-yl)piperidin-1-yl)methanone] | – | 8% | 4% | 48%
COC1(c2ccc(C(=O)N3CCC(c4ccc(C(F)(F)F)nc4)CC3)cc2)COC1 [Example 213, (4-(3-methoxyoxetan-3-yl)phenyl)(4-(6-(trifluoromethyl)pyridin-3-yl)piperidin-1-yl)methanone] | – | 0% | 0% | 37%
O=C(c1ccc(C2(O)COC2)cc1)N1CCN(c2ccc(C(F)(F)F)nc2)CC1 [Example 217, (4-(3-hydroxyoxetan-3-yl)phenyl)(4-(6-(trifluoromethyl)pyridin-3-yl)piperazin-1-yl) methanone] | – | 0% | 5% | 128%
COC1(c2ccc(C(=O)N3CCN(c4ccc(C(F)(F)F)cn4)CC3)cc2)COC1 [Example 218, (4-(3-methoxyoxetan-3-yl)phenyl)(4-(5-(trifluoromethyl)pyridin-2-yl)piperazin-1-yl)methanone] | – | 0% | 26% | 85%
CCOC1(c2ccc(C(=O)N3CCN(c4ccc(C(F)(F)F)cn4)CC3)cc2)COC1 [Example 219, (4-(3-ethoxyoxetan-3-yl)phenyl)(4-(5-(trifluoromethyl)pyridin-2-yl)piperazin-1-yl)methanone] | – | 4% | 41% | 15%
COC1(c2cccc(C(=O)N3CCN(c4ccc(C(F)(F)F)cn4)CC3)c2)COC1 [Example 221, (3-(3-methoxyoxetan-3-yl)phenyl)(4-(5-(trifluoromethyl)pyridin-2-yl)piperazin-1-yl)methanone] | – | 0% | 28% | 66%
